# Assay results taken from patent publication US9403800B2, “Compounds for inhibition of cancer cell proliferation” (ChemRegen, Inc., priority 2012, dated 2016).
# Tests used:
# [1] = tested on: TGF-signaling pathway; experiment: TGF-signaling pathway transcriptional activity (selectivity); assay type: cell-based
# [2] = chemical stability by HPLC; assay type: physicochemical; conditions: determined by HPLC
# Description: As observed from the data presented in Table 1, both free bases and salts gave significant Wnt inhibition potency. On the basis of the lipophilic character of many of the analogs, it is likely interaction site on the molecular target has a lipophilic character although polar interactions are apparent. To increase solubility, were possible, hydrochloride salts of the sulfonamides were synthesized. To afford appropriate bioavailability, sulfonamides were synthesized with chemical and metabolic stability in mind.
# [3] = tested on: HEK-293T cells; experiment: Alamar Blue resazurin-based cell viability assay, HEK-293T; conditions: Homo sapiens, read-out: decrease of cell viability, EC50
# [4] = tested on: PC-3; experiment: viability (Alamar Blue), PC-3; assay type: cell-based; conditions: Homo sapiens; PC-3, 24 hrs
# Protocol: (§1) Given Compounds 1, 4, and 15 inhibited cancer cell proliferation and stimulated apoptosis, we tested the effects compounds 1, 4, and 15 on cancer cell viability and cytotoxicity. The MDA-MB-231, MCF-7, PC-3, and HCT-116 cells were treated with the indicated compounds for 24 hrs. over a dose range from 1.6 to 5000 nM. Viability and cytotoxicity were then measured by the Alamar Blue and Vibrant Cytotox assays respectively.
# [5] = tested on: MDA-MB-231; experiment: viability (Alamar Blue), MDA-MB-231; assay type: cell-based; conditions: Homo sapiens; MDA-MB-231, 24 hrs
# Protocol: as §1
# [6] = tested on: PC-3 prostate tumors; experiment: PC-3 prostate tumor xenograft; assay type: in vivo, mice; conditions: for growth of PC-3 prostate tumors: i.p. 30 mg/kg daily for 19 days
# Protocol: (§2) Based on the inhibition of cancer cell proliferation by the disclosed compounds the disclosed compounds likely will inhibit cancer cell migration. […] Following establishment of HCT-116 tumors, daily doses of either Compound 15 or vehicle were administered by i.p. injection at 20 mg/kg for 28 days. […] The weight of the excised HCT-116 tumors was 77% lower for the Compound 15-treated mice relative to the vehicle control on Day 28 of the experiment. […] Following establishment of PC-3 tumors, daily doses of either Compounds 1, 15 or vehicle were administered by i.p. injection at 30 mg/kg for 19 days. […] The weight of the excised PC-3 tumors was 66% for compound 15-treated mice compared to vehicle-treated controls on Day 19 of the experiment.
# [7] = tested on: NF-B signaling pathway; experiment: NF-B signaling pathway transcriptional activity (selectivity); assay type: cell-based
# [8] = tested on: canonical Wnt target genes, Cyclin D1 (CCND1), Axin2 (AXIN2), and c-Myc (c-MYC); experiment: mRNA levels of canonical Wnt target genes in HEK293T and SW480 cells; assay type: cell-based; conditions: HEK293T and SW480 colorectal cells
# [9] = tested on: HEK-293T cells; experiment: cytotoxicity by leakage of G6PDH, HEK-293T; assay type: cell-based
# [10] = tested on: Wnt transcriptional activity; experiment: cell-based Wnt-luciferase reporter assay (SuperTOPFlash); conditions: for Relative potency for Wnt inhibition: relative to IWR-1, transfected HEK293A cells treated 12 hours, normalized to Renilla
# Description: “Hit” 1 (FIG. 1) was identified as a Wnt inhibitor in a high-throughput screen of a library of 74,000 compounds using a cell-based Wnt-luciferase reporter assay as a readout of Wnt transcriptional activity. […] Wnt transcriptional activity was monitored in HEK-293T cells using a luciferase-based Wnt reporter (SuperTOPFlash) stimulated by Wnt3a conditioned media.
# Medicinal chemical refinement of “hit” 1 was undertaken to improve its potency, maintain non-toxicity, increase water solubility and improve bioavailability. The SAR refinement of functional activity of “hit” 1 on the inhibition of the Wnt pathway was determined using a cell-based Wnt-luciferase reporter assay (described above). with Renilla Luciferase was used as a normalization for transfection efficiency. 6-8 hours after transfection, transfected HEK293A cells were treated with 1 and each analog for 12 hours. Both firefly and renilla luciferase activities were measured using a plate reader. A library of compounds was tested to obtain an SAR for 1. Compound 1 and its analogs are synthesized by a two step synthesis, Scheme 1.
# Signaling was tested using a standard luciferase response system for canonical Wnt/β-catenin/TCF signaling. Briefly, we used a cell line that had been transfected with a luciferase reporter gene under the control of the response element of a transcription factor that is activated by association with β-catenin and is the target of canonical Wnt signaling.
# [11] = tested on: Endogenous Target Genes for Wnt & Apoptotic Pathways in MCF-7; experiment: qPCR of Wnt and pro-apoptotic target genes, MCF-7; assay type: cell-based; set-up: MYC expression, % change relative to DMSO control / BAX expression, % change relative to DMSO control / BAK expression, % change relative to DMSO control / BBC3 expression, % change relative to DMSO control / FOS expression, % change relative to DMSO control: concentration or dose not given beside the values; conditions: MCF-7, 24 hrs, qPCR normalized to 36B4
# Protocol: Given the effects of Compounds 1, 4, and 15 on biological functions (e.g., proliferation, viability, and apoptosis) in several cancer cell lines, we tested the effects of compounds 1, 4, and 15 on regulation of endogenous Wnt and pro-apoptotic gene expression. MDA-MB-231, MCF-7, PC-3, and HCT-116 cancerncells were treated with the indicated compounds for 24 hrs. over a dose range from 1.6 to 5000 nM. Gene expression was measured using qPCR, normalized to the housekeeping gene, 36B4, and calculated % change relative to DMSO control. NC, no change.
# [12] = in vivo toxicity assessment in rats; conditions: 30 mg/kg p.o. daily for one week
# Protocol: Compounds of structure I were designed to be chemically and metabolically stable and non-toxic. For example, the alpha methyl group of the quinoxalin ring system protects the sulfonamide from rapid metabolism or hydrolysis. […] We tested Compounds 4 and 15 for toxicity in rats. In one study, we dosed rats with Compound 4 (p.o) daily for one week with 30 mg/kg. In another study, we dosed rats daily for one week with 30 mg/kg Compound 15 by p.o. administration. We monitored the weights of the rats daily over the course of both studies. […] Blood was also obtained from the animals at termination of the experiment.
# [13] = tested on: HCT-116 xenograft colon tumors; experiment: HCT-116 xenograft colon tumors in nu/nu mice; assay type: in vivo
# Protocol: as §2
Compound,IC50 [4] [nM],IC50 [5] [nM],growth of PC-3 prostate tumors [6],Relative potency for Wnt inhibition [10],"BAK expression, % change relative to DMSO control [11]","BBC3 expression, % change relative to DMSO control [11]","CCDN1 expression, % change relative to DMSO control [11]","FOS expression, % change relative to DMSO control [11] [%]","JUN expression, % change relative to DMSO control [11]","MYC expression, % change relative to DMSO control [11] [%]",food or water intake or behavior [12],overall toxicity in healthy rats [12],weights of the rats compared to controls [12],"BAX expression, % change relative to DMSO control [11]",other results
"O=C1CCCN1c1ccc(S(=O)(=O)N2CCCc3ccccc32)cc1 [Compound 1, 1-(4-(3,4-dihydroquinolin-1(2H)-ylsulfonyl)phenyl)pyrrolidin-2-one]",157,35,inhibited the growth of PC-3 prostate tumors,+++ (between 40 to 60% potency compared to IWR-1),−10%,−55%,+50%,−70,+125%,−25,,,,,"transcriptional activity of the TGF-signaling pathway [1]: did not alter the transcriptional activity; half-life [2]: 120 h; EC50 [3]: ~25 nM; transcriptional activity of the NF-B signaling pathway [7]: did not alter the transcriptional activity; mRNA levels of canonical Wnt target genes CCND1, AXIN2, c-MYC [8]: decrease in mRNA levels; cytotoxicity (leakage of G6PDH) [9]: not cytotoxic; EC50 ([10]; Homo sapiens, HEK-293T cells, SuperTOPFlash stimulated by Wnt3a conditioned media, read-out: inhibition of Wnt transcriptional activity, EC50): ~25 nM"
"CC1CCc2ccccc2N1S(=O)(=O)c1ccc(N2CCCC2=O)cc1 (stereo not shown) [Compound 4, 1-(4-(2-methyl-3,4-dihydroquinolin-1(2H)-ylsulfonyl)phenyl)pyrrolidin-2-one]",17,45,,++++ (between 60 to 80% potency compared to IWR-1),+25%,−40%,+100%,−85,+50%,−5,no differences in food or water intake or behavior,nontoxic,no differences in the weights of the rats were observed,+75%,
"CN1CCN(S(=O)(=O)c2ccc(N3CCCC3=O)cc2)c2ccccc21 [Compound 15, 1-(4-(4-methyl-3,4-dihydroquinoxalin-1(2H)-ylsulfonyl)phenyl)pyrrolidin-2-one]",32,93,inhibited the growth of PC-3 prostate tumors,,+45%,+75%,+50%,−75,+150%,−50,no differences in food or water intake or behavior,nontoxic,no differences in the weights of the rats were observed,−25%,"toxicity in tissue (liver, heart, kidney, lung and intestine) [12]: did not show any indication of toxicity; serum clinical chemistry values compared with vehicle-treated animals ([12]; at termination): did not alter the clinical chemistry values; weight of the excised PC-3 tumors compared to vehicle-treated controls ([6]; i.p. 30 mg/kg daily, Day 19): 66%; weight of the excised HCT-116 tumors, lower relative to the vehicle control ([13]; i.p. 20 mg/kg daily, Day 28): 77%; growth of HCT-116 colon tumors ([13]; nu/nu mice, i.p. 20 mg/kg daily for 28 days): decreased the growth of HCT-116 colon tumors; inhibition of Wnt transcriptional activity, IC50 (class symbol) ([10]; tested simultaneously with p53 reporter): ++++ (between 60 to 80% potency compared to IWR-1)"
